# Measured values reported in patent publication USRE45612E1, “Corrosion inhibitor composition applicable for aluminum and steel protection and procedure” (MD FIFTH WARD PROPERTIES, INC., priority 2001, dated 2015).
# Assays:
# [1] = Salt spray exposure (ASTM B-117) of scribed aircraft primers containing the inhibitor pigment; conditions: 2000 hours salt spray, scribe area
# Method: The test was performed in a typical two component aircraft primer formulation, specifically recommended for aluminum protection. […] By visual examination of their physical state at the end of the test period, the coatings' corrosion inhibitor performance, considered directly proportional to the tested pigment components' corrosion inhibitive activity, was qualified. The scribed area was especially examined and the absence or presence of corrosion products, respectively, was interpreted as display of, or absence of, the respective corrosion inhibitor pigment's “throw power”. It will be apparent that the “throw power” is the discriminative characteristic of effective corrosion inhibitor pigments.
# [2] = Solubility in water of the pigment; format: physicochemical
# [3] = pH of saturated extract / leachate of the pigment; format: physicochemical
# [4] = Salt spray exposure (ASTM B-117) of scribed coil primers, service life of coating; conditions: on galvanized steel, relative to Sr-doped amorphous silica
# Method: Steel Co.), at 0.6-0.7 mil dry film thickness, aged for at least 2 (two) days at room temperature, scribed and subsequently subjected to salt spray exposure (according to ASTM B-117). The scribes were applied in the typical cross form, and, in order to cut through the protective galvanic zinc coating from the area of the scribes, at appropriate depth. During salt spray exposure, the coatings' physical state was assessed periodically by visual examination. […] Service life of a coating is considered directly proportional to the related pigments' or additives' corrosion inhibitor performance, which is conveniently qualified by Ei, the Inhibitor Efficiency Index, defined as: […]
smiles,measurement,setting,value
"Sc1nnc(S)s1 [DMTD, 2,5-dimercapto-1,3,4 thiadiazole]","""Throw Power"" Observed",[1],displayed throw power
"[S-]c1nnc(S)s1.[S-]c1nnc(S)s1.[Zn+2] [Example 1, Zn(DMTD)2]","solubility in water, at 24° C.",[2],400 µg/mL
same,pH (saturated extract),[3],4.5-5.0
"C1CCC(NC2CCCCC2)CC1.S=c1[nH]c(=S)[nH]c(=S)[nH]1 [Example 7, Di-cyclohexyl mono-ammonium salt of trithiocyanuric acid]",extension of service life of coil coatings over Sr-doped amorphous silica,[4],200%
